From patent US4451650A, “Pyrido[4,3-b][1,4]oxazines and pyrido[4,3-b][1,4]thiazines” (Southern Research Institute, priority 1982, dated 1984)
pIC50: −log10 of the molar value.

How the values were obtained:
[1] = test system: lymphoid leukemia L1210 cells; assay: Mitotic index (fraction of cells in mitosis) of cultured lymphoid leukemia L1210 cells, 12 hours exposure; assay type: cell-based; conditions: Mus musculus, exposure period of 12 hours, read-out: L1210 MI0.5 (concentration of agent that causes a mitotic index of 0.5)
Experimental: ^b Concentration of agent that causes a mitotic index (fraction of
cells in mitosis divided by total cells) of 0.5 for cultured lymphoid
leukemia L1210 cells during an exposure period of 12 hours [Wheeler, G.
P., Bowden, B. J., Werline, J. A., Adamson, D. J., and Temple, C., Jr.,

[2] = test system: lymphoid leukemia L1210 cells; assay: Inhibition of proliferation of cultured lymphoid leukemia L1210 cells (48 hours); assay type: cell-based; conditions: read-out: L1210 ID50 (concentration of agent that inhibits proliferation of cultured lymphoid leukemia L1210 cells to 50% control growth during 48 hours)
Experimental: ^a Concentration of agent that inhibits proliferation of cultured
lymphoid leukemia L1210 cells to 50% control growth during 48 hours
[Wheeler, G. P., Bowdon, B. J., Werline, J. A., Adamson, D. J., and
Temple, C., Jr., Cancer Research, 1982, 42, 791].

[3] = test system: Lymphocytic leukemia P388; assay: Increase in life span, lymphocytic leukemia P388, 10^6 tumor cell implant, i.p.; assay type: in vivo; conditions: Mus musculus, P388, ip, schedule 1-5, read-out: P388 % ILS (increase in life span at the highest nontoxic dose)
Excerpt: ^c Lymphocytic leukemia P388.
^d Increase in life span at the highest nontoxic dose.

SMILES	EC (mitotic index 0.5) [1] [µM]	pIC50 [2]	ILS at 300 mg/kg [3] [%]	further results
CCOC(=O)Nc1cc2c(c(N)n1)N=C(c1ccccc1)CO2 [a]	0.56	6.65		ILS at 100 mg/kg [3]: 44%; ILS at 200 mg/kg [3]: 80%
CCOC(=O)Nc1cc2c(c(N)n1)N=C(c1ccccc1)C(C)O2 (stereo not shown) [b]	0.49	6.96		ILS at 100 mg/kg [3]: 50%
CCOC(=O)Nc1cc2c(c(N)n1)N=C(c1ccccc1)C(c1ccccc1)O2 (stereo not shown) [c]	3	6.06		ILS at 200 mg/kg [3]: 2%
CCOC(=O)Nc1cc2c(c(N)n1)N=C1c3ccccc3CCC1O2 (stereo not shown) [d]		< 6.52	32	
CCOC(=O)Nc1cc2oc(=O)c(-c3ccccc3)nc2c(N)n1 [e]		< 5.52	0	
CCOC(=O)Nc1cc2c(c(N)n1)N=C(c1cccc(OC)c1)CO2 [f]	0.1	7.28		ILS at 50 mg/kg ([3]; 50 mg/kg): 73%
CCOC(=O)Nc1cc2c(c(N)n1)N=C(c1cc(OC)c(OC)c(OC)c1)CO2 [g]		< 5.52	0	
CCOC(=O)Nc1cc2c(c(N)n1)N=C(c1ccc(Cl)cc1)CO2 [h]		< 5.52	0	
CCOC(=O)Nc1cc2c(c(N)n1)N=C(c1ccc([N+](=O)[O-])cc1)CO2 [i]		< 5.52	0	
CCOC(=O)Nc1cc2c(c(N)n1)N=C(c1ccccc1)CS2 [j]	10	5.21	0	
CCOC(=O)Nc1cc2c(c(N)n1)N=C(c1ccccc1)C(C)S2 (stereo not shown) [k]	9.6	5.80		ILS at 150 mg/kg ([3]; 150 mg/kg): 10%
CCOC(=O)Nc1cc2c(c(N)n1)N=C(c1ccccc1)C(C)(C)S2 [l]		< 5.00		
CCOC(=O)Nc1cc2c(c(N)n1)N=C(c1cccc(OC)c1)CS2 [m]	2	6.28		ILS at 75 mg/kg ([3]; 75 mg/kg): 3%
CCOC(=O)Nc1cc2c(c(N)n1)N=C(c1ccc(OC)cc1)CS2 [n]	4.9	6.47	3	
CCOC(=O)Nc1cc2c(c(N)n1)N=C(c1ccc3ccccc3c1)CS2 [o]	3	6.24	5	
CCOC(=O)Nc1cc2c(c(N=CN(C)C)n1)N=C(c1ccccc1)CO2 [p]	0.78	6.51		
CCOC(=O)Nc1cc2c(c(NC(=O)CBr)n1)N=C(c1ccccc1)CO2 [q]	11	5.66		
